Source: ChEMBL document CHEMBL5260795, “Antifungal potential of marine natural products” (Eur J Med Chem, 2017)
Values after ≈ are worked out from the molar mass of the structure shown.

Key:
Candida albicans [1] = assay: Antifungal activity against Candida albicans ATCC76615 assessed as inhibition of fungal growth by atomatic microplate reader analysis; type: functional
Cryptococcus neoformans [2] = assay: Antifungal activity against Cryptococcus neoformans ATCC32609 assessed as inhibition of fungal growth by atomatic microplate reader analysis; type: functional
Aspergillus fumigatus [3] = assay: Antifungal activity against clinical strain Aspergillus fumigatus assessed as inhibition of fungal growth by atomatic microplate reader analysis; type: functional
Trichophyton rubrum = assay: Antifungal activity against Trichophyton rubrum assessed as inhibition of fungal growth by atomatic microplate reader analysis; type: functional
Candida tropicalis [4] = assay: Antifungal activity against clinical strain Candida tropicalis assessed as inhibition of fungal growth by atomatic microplate reader analysis; type: functional
Pichia kudriavzevii = assay: Antifungal activity against clinical strain Candida krusei assessed as inhibition of fungal growth by atomatic microplate reader analysis; type: functional
Aspergillus flavus = assay: Antifungal activity against Aspergillus flavus assessed as inhibition of fungal growth; type: functional, organism-based
Candida tropicalis [5] = assay: Antifungal activity against Candida tropicalis assessed as fungal growth inhibition; type: functional
Nannizzia gypsea [6] = assay: Antifungal activity against Microsporum gypseum ATCC31388; type: functional
Epidermophyton floccosum = assay: Antifungal activity against Epidermophyton floccosum measured after 96 hrs by two fold serial dilution technique; type: functional
[7] = system: Trichophyton mentagrophytes; assay: Antifungal activity against Trichophyton mentagrophytes measured after 96 hrs by two fold serial dilution technique; type: functional
Nannizzia gypsea [8] = assay: Antifungal activity against Microsporum gypseum measured after 96 hrs by two fold serial dilution technique; type: functional
Aspergillus niger [9] = assay: Antifungal activity against Aspergillus niger measured after 96 hrs by two fold serial dilution technique; type: functional
Aspergillus fumigatus [10] = assay: Antifungal activity against Aspergillus fumigatus measured after 96 hrs by two fold serial dilution technique; type: functional
Fusarium oxysporum [11] = assay: Antifungal activity against Fusarium oxysporum measured after 96 hrs by two fold serial dilution technique; type: functional
Candida albicans [12] = assay: Antifungal activity against Candida albicans measured after 96 hrs by two fold serial dilution technique; type: functional
Aspergillus fumigatus [13] = assay: Antimicrobial activity against Aspergillus fumigatus; type: functional
Lindra thalassiae = assay: Antifungal activity against Lindra thalassiae assessed as lethal dose; type: functional; conditions: Lindriella thalassiae; read-out: LD50 (the source's name)
Cryptococcus neoformans [14] = assay: Antifungal activity against Cryptococcus neoformans; type: functional, organism-based
Saccharomyces cerevisiae = assay: Antifungal activity against Saccharomyces cerevisiae assessed as inhibition of fungal growth; type: functional, organism-based
Aspergillus niger [15] = assay: Antifungal activity against Aspergillus niger; type: functional
Candida albicans [16] = assay: Antimicrobial activity against Candida albicans assessed as reduction of microbial microbial growth; type: functional
Candida tropicalis [17] = assay: Antifungal activity against Candida tropicalis; type: functional
Fusarium oxysporum [18] = assay: Antifungal activity against Fusarium oxysporum; type: functional
Candida albicans [19] = assay: Antifungal activity against Candida albicans ATCC 24433; type: functional
Fusarium graminearum = assay: Antimicrobial activity against Fusarium graminearum; type: functional
Candida albicans [20] = assay: Antifungal activity against wild type Candida albicans; type: functional, organism-based
Candida albicans [21] = assay: Antifungal activity against amphotericin-B-resistant Candida albicans; type: functional, organism-based
Cryptococcus neoformans [22] = assay: Antifungal activity against Cryptococcus neoformans assessed as fungal growth inhibition; type: functional

Q: For CO[C@@H]1[C@@H](O)[C@H](O[C@@H]2[C@@H](O)[C@H](O[C@@H]3[C@@H](O)[C@H](O)[C@@H](O[C@H]4[C@H](O[C@H]5CC[C@@H]6C7=C[C@H](O)[C@]89C(=O)O[C@@](C)(CCC=C(C)C)[C@H]8CC[C@@]9(C)[C@@H]7CC[C@H]6C5(C)C)OC[C@@H](O[C@@H]5O[C@H](CO)[C@@H](O)[C@H](O[C@@H]6O[C@H](CO)[C@@H](O)[C@H](OC)[C@H]6O)[C@H]5O)[C@@H]4O)O[C@H]3C)O[C@H](CO)[C@H]2O)O[C@H](CO)[C@H]1O, which MIC (Candida albicans [1]) is on record?
A: 0.7 µM (≈ 0.988 µg/mL)

Q: And the MIC (Cryptococcus neoformans [2])?
A: 0.7 µM (≈ 0.988 µg/mL)

Q: What about the MIC (Aspergillus fumigatus [3]) of the same compound?
A: 0.7 µM (≈ 0.988 µg/mL)

Q: And the MIC (Trichophyton rubrum)?
A: 0.7 µM (≈ 0.988 µg/mL)

Q: What about the MIC (Candida tropicalis [4]) of the same compound?
A: 0.7 µM (≈ 0.988 µg/mL)

Q: And the MIC (Pichia kudriavzevii)?
A: 0.7 µM (≈ 0.988 µg/mL)

Q: How did the IC50 (Aspergillus flavus) turn out when CC[C@H](C)/C=C(C)/C=C/C1=CC2=C(Cl)C(=O)[C@@](C)(OC(C)=O)C(=O)C2=CO1 was run?
A: 3.39 µg/mL (≈ 8.67 µM)

Q: How did the MIC (Candida tropicalis [5]) turn out when CO[C@@H]1[C@@H](O)[C@H](O[C@@H]2[C@@H](O)[C@H](O[C@@H]3CO[C@@H](O[C@H]4CC[C@]5(C)[C@@H]6CC[C@]78C(=O)O[C@@](C)(C[C@H](CC(C)C)OC(C)=O)[C@H]7C(=O)C[C@@]8(C)C6=CC[C@H]5C4(C)C)[C@H](O[C@@H]4O[C@H](C)[C@@H](O[C@@H]5OC[C@@H](O)[C@H](O[C@@H]6O[C@H](CO)[C@@H](O)[C@H](OC)[C@H]6O)[C@H]5O)[C@H](O)[C@H]4O)[C@H]3O)O[C@H](CO)[C@H]2O)O[C@H](CO)[C@H]1O was run?
A: 1.4 µM (≈ 2.04 µg/mL)

Q: What about the MIC (Nannizzia gypsea [6]) of the same compound?
A: 1.4 µM (≈ 2.04 µg/mL)

Q: Which results are given for CC(=O)OCc1cc(=O)occ1O?
A: MIC (Epidermophyton floccosum): 1 µg/mL (≈ 5.43 µM); MIC [7]: 1 µg/mL (≈ 5.43 µM); MIC (Nannizzia gypsea [8]): 1 µg/mL (≈ 5.43 µM); MIC (Aspergillus niger [9]): 1 µg/mL (≈ 5.43 µM); MIC (Aspergillus fumigatus [10]): 1 µg/mL (≈ 5.43 µM); MIC (Fusarium oxysporum [11]): 1 µg/mL (≈ 5.43 µM); MIC (Candida albicans [12]): 1 µg/mL (≈ 5.43 µM)

Q: How did the MIC (Aspergillus fumigatus [13]) turn out when COc1ccc(/C=C/CCCC[C@H](C)[C@H](O)[C@@H](O)[C@H]2NC(=O)C[C@@H](O)CNC(=O)CNC(=O)[C@@H](Cc3c(C(=O)O)[nH]c4ccccc34)NC(=O)CN(C)C(=O)C[C@H]3NC(=O)[C@H](O)[C@H]3NC(=O)[C@H]2O)cc1 was run?
A: 1.3 µg/mL (≈ 1.33 µM)

Q: What does the source list for CO[C@@H]1[C@@H](O)[C@H](O[C@@H]2[C@@H](O)[C@H](O[C@@H]3[C@@H](O)[C@H](O)[C@@H](O[C@H]4[C@H](O[C@H]5CC[C@@H]6C7=C[C@H](O)[C@]89C(=O)O[C@@](C)(CCCC(C)C)[C@H]8CC[C@@]9(C)[C@@H]7CC[C@H]6C5(C)C)OC[C@@H](O[C@@H]5O[C@H](CO)[C@@H](O)[C@H](O[C@@H]6O[C@H](CO)[C@@H](O)[C@H](OC)[C@H]6O)[C@H]5O)[C@@H]4O)O[C@H]3C)O[C@H](CO)[C@H]2O)O[C@H](CO)[C@H]1O?
A: MIC (Candida albicans [1]): 0.7 µM (≈ 0.989 µg/mL); MIC (Cryptococcus neoformans [2]): 0.7 µM (≈ 0.989 µg/mL); MIC (Aspergillus fumigatus [3]): 0.7 µM (≈ 0.989 µg/mL); MIC (Trichophyton rubrum): 0.7 µM (≈ 0.989 µg/mL); MIC (Candida tropicalis [4]): 0.7 µM (≈ 0.989 µg/mL); MIC (Pichia kudriavzevii): 0.7 µM (≈ 0.989 µg/mL)

Q: Which LC50 (Lindra thalassiae) does the source give for CC(=O)OC[C@@]1(COS(=O)(=O)[O-])C(=O)CC[C@]23C[C@]24CC[C@]2(C)[C@@H]([C@H](C)CC(=O)CC(C)C)CC[C@@]2(C)[C@H]4CC[C@@H]13.[Na+] here?
A: 0.03 µg/mL

Q: Which IC50 (Cryptococcus neoformans [14]) does the source give for CCC(C)CC(C)/C=C(C)/C=C/CC(C)C(O)C(C)/C=C(C)/C=C/C(O)C(C)c1cc(O)c(C2OC(CO)CC(O)C2O)c(=O)o1 (configuration not stated) here?
A: 1.56 µg/mL (≈ 2.41 µM)

Q: And the IC50 (Saccharomyces cerevisiae)?
A: 1.56 µg/mL (≈ 2.41 µM)

Q: C=C(C)CCC[C@@]1(C)OC(=O)[C@]23CC=C4C(=CC[C@H]5C(C)(C)[C@@H](O[C@@H]6OC[C@@H](O[C@@H]7O[C@H](CO)[C@@H](O)[C@H](O[C@@H]8O[C@H](CO)[C@@H](O)[C@H](O)[C@H]8O)[C@H]7O)[C@H](O)[C@H]6O[C@@H]6O[C@H](CO)[C@@H](O[C@@H]7OC[C@@H](O)[C@H](O[C@@H]8O[C@H](CO)[C@@H](O)[C@H](OC)[C@H]8O)[C@H]7O)[C@H](O)[C@H]6O)CC[C@]45C)[C@@]2(C)CC(=O)[C@@H]13 was tested. Which MIC (Candida tropicalis [5]) did it give?
A: 1.4 µM (≈ 1.95 µg/mL)

Q: And the MIC (Nannizzia gypsea [6])?
A: 1.4 µM (≈ 1.95 µg/mL)

Q: What does the source list for C/C(=C\[C@@H](O)C/C(C)=C/CCc1ccoc1)C/C=C/c1ccoc1?
A: MIC (Aspergillus niger [15]): 2 µg/mL (≈ 6.13 µM); MIC (Candida albicans [16]): 0.25 µg/mL; MIC (Candida tropicalis [17]): 2 µg/mL (≈ 6.13 µM); MIC (Fusarium oxysporum [18]): 1 µg/mL (≈ 3.06 µM)

Q: CO[C@H](c1ccc(O)cc1)[C@@H](NC(=O)[C@H](CCC(N)=O)NC(=O)[C@H](CC(C)C)NC(=O)[C@@H](CCCNC(=N)N)NC(=O)[C@H](NC(=O)[C@H](NC(=O)[C@@H](NC(=O)[C@H](O)[C@H](O)[C@H](CCCNC(=N)N)NC(=O)[C@@H](C)NC(=O)[C@H](C)[C@H](O)[C@H](C)CC(C)C)[C@@H](C)CC(N)=O)[C@@H](C)O)[C@@H](C)O)C(=O)N(C)[C@@H](C)C(=O)O was tested. Which MIC (Candida albicans [19]) did it give?
A: 0.15 µg/mL (≈ 0.1 µM)

Q: For CC(C)C1=C2N=C3OC=CC=C[C@@]34OC[C@H]3O[C@@]4(OC3(C)C)N2[C@@H](Cc2ccccc2)C(=O)N1, which MIC (Fusarium graminearum) is on record?
A: 4 µg/mL (≈ 8.63 µM)

Q: For CC(/C=C/c1ccccc1)=C\[C@H](O)[C@@H]1CC(=O)N[C@@H](CO)C(=O)NC2Cn3cc([n+]([C@@H]4O[C@H](CO)[C@H](O)[C@H](O)[C@H]4O)c3)CC(NC(=O)CCC[C@@H](C(=O)[O-])NC(=O)[C@@H](O)CNC(=O)[C@H](Cc3ccc(Br)cc3)NC(=O)[C@H]([C@@H](O)C(N)=O)NC(=O)[C@H](CC(N)=O)NC2=O)C(=O)N[C@@H]([C@H](C)O)C(=O)N[C@@H](CO)C(=O)N[C@@H](Cc2ccccc2)C(=O)N1 (some centres not stated), which IC50 (Candida albicans [20]) is on record?
A: 7.84 µg/mL (≈ 4.52 µM)

Q: What about the IC50 (Candida albicans [21]) of the same compound?
A: 3.49 µg/mL (≈ 2.01 µM)

Q: Which MIC (Cryptococcus neoformans [22]) does the source give for CCCCC(C)C/C(=C/[C@@]1(CC)OC(=O)C[C@@H]1O)CC (some centres not stated) [SIMPLEXOLIDE E] here?
A: 3.66 µg/mL (≈ 13 µM)
